Molecules are shown by their SMILES. pIC50: −log10 of the molar value.

Test [1] has as its target 11-beta-hydroxysteroid dehydrogenase 1 (Mus musculus, UniProt P50172). The test can be described thus: Inhibition of mouse 11beta-HSD1.
Test [2] has as its target T1, 11-beta-hydroxysteroid dehydrogenase type 2 (Mus musculus) (UniProt P51661).
T1 sequence (whole entry): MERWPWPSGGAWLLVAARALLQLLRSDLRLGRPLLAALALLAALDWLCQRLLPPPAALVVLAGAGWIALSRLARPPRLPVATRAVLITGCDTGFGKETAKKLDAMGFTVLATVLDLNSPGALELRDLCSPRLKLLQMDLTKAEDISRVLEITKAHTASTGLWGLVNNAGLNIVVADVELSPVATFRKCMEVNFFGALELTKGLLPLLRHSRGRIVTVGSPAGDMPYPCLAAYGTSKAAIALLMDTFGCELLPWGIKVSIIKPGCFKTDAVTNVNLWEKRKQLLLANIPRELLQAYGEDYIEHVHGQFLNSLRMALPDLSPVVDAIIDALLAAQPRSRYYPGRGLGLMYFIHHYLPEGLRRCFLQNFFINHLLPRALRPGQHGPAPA
The test can be described thus: Inhibition of mouse 11beta-HSD2 at 10 uM.

Test [3] addresses 11-beta-hydroxysteroid dehydrogenase 1 (Mus musculus) (UniProt P50172). The test can be described thus: Inhibition of mouse 11beta-HSD1 at 10 uM.

11-beta-hydroxysteroid dehydrogenase 1, sequence (P50172 whole entry): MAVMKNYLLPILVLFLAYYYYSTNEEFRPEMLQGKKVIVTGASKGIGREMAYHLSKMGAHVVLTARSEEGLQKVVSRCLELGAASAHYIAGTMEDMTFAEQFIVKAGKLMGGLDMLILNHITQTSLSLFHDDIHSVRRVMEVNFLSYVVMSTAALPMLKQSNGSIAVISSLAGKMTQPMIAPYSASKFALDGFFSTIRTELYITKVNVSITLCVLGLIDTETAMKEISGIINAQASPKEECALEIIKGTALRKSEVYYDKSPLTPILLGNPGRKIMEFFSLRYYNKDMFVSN
11-beta-hydroxysteroid dehydrogenase 1 (Mus musculus), sequence (P50172 whole entry, looked up): as the sequence (P50172 whole entry) above

One may read the pIC50 as the IC50 on a negative log10 scale, so that one unit is a factor of ten. Low readings indicate a high IC50, high ones a low IC50. The term inhibition denotes the relative decrease from the control value, in per cent. Read a high inhibition as strong suppression. In test [1], `O=C(CN1C(=O)C2C3c4ccccc4C(c4ccccc43)C2C1=O)Nc1cccc(Cl)c1` (configuration not stated) had a pIC50 of 4.90. In test [2], this compound gave an inhibition of 2.2%.

For the compound `Cc1ccc(C(=O)COC(=O)C(Cc2ccccc2)N2C(=O)c3ccccc3C2=O)cc1` (configuration not stated), the inhibition in test [3] came out at 60%; in test [2], 3.4%.

In the case of `O=C(CSc1nc2ccc(NC(=O)c3ccccc3Br)cc2s1)NCCc1ccccc1`, the pIC50 in test [1] is 5.68. This compound registered an inhibition in test [2] of 0%.

In turn, `Cc1cc(NS(=O)(=O)c2ccc(NC(=O)c3ccc(C(=O)C(=O)c4ccccc4)cc3)cc2)nc(C)n1` had a negative-log IC50 (pIC50) in test [1] of 6.32. The inhibition in test [2] came to 9.1%.

Consider `CC(C)COC(=O)c1ccc(NC(=O)c2ccc3c(c2)-c2ccccc2C3=O)cc1`, for which the negative logarithm of the IC50 (pIC50) in test [1] was 5.44. Further, the inhibition in test [2] was found to be 3.7%.

With `Cc1ccc(S(=O)(=O)N(CC(=O)N2CCCCCC2)c2cc(Cl)ccc2C)cc1`, in test [1], the pIC50 is 5.21. For the same compound, the inhibition in test [2] amounted to 0.8%.

The record behind these values is ChEMBL document CHEMBL1141619, “Discovery of novel inhibitors of 11beta-hydroxysteroid dehydrogenase type 1 by docking and pharmacophore modeling” (Bioorg Med Chem Lett, 2008).
